What was measured:
HOM2 cells = assay: 35S-methionine/cysteine pulse/chase of HOM2 cells, immunoprecipitation of class II with Tu36, SDS-PAGE (Ii processing and SDS-stable peptide-loaded αβ dimers)
cathepsin D [1] = biological target: cathepsin D (Homo sapiens, UniProt P07339); settings: Alteri et al. 1993; cited from earlier work
cathepsin D [2] = assay: Inhibition of cathepsin D activity in human monocytes; assay type: cell-based
cathepsin H = biological target: T1, cathepsin H (Homo sapiens, UniProt P09668); assay: Inhibition of purified human cathepsin H; assay type: biochemical; settings: concentration not given
T1 sequence (P09668 98-335): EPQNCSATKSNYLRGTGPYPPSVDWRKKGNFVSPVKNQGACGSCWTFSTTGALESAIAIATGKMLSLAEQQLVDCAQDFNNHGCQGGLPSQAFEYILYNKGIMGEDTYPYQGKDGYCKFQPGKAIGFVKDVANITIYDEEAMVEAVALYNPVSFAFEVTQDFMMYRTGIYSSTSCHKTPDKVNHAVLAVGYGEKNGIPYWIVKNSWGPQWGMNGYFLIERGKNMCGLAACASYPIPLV

cathepsin B = cathepsin B (Homo sapiens, UniProt P07858); assay: Active site labeling of cysteine proteases with Cbz-[125I]-Tyr-Ala-CN2 in HOM2 cells after preincubation with inhibitor; settings: inhibitor concentration of 5 nM
cathepsin S = cathepsin S (Homo sapiens, UniProt P25774); assay: as above; settings: LHVS concentration of 1 nM, 37°C 1 hour prior to labeling
Chain of cathepsin S (P25774 115-331): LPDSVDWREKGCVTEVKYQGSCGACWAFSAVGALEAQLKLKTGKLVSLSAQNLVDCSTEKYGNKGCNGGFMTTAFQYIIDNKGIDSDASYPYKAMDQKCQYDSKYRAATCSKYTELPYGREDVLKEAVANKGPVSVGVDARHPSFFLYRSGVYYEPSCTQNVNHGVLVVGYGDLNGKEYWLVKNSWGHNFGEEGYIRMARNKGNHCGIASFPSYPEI

[3] = tested on: Peripheral blood mononuclear cells (PBMC's); assay type: cell-based, human; settings: 3-5 days

Chain of cathepsin D (Homo sapiens, UniProt P07339) (P07339 65-412): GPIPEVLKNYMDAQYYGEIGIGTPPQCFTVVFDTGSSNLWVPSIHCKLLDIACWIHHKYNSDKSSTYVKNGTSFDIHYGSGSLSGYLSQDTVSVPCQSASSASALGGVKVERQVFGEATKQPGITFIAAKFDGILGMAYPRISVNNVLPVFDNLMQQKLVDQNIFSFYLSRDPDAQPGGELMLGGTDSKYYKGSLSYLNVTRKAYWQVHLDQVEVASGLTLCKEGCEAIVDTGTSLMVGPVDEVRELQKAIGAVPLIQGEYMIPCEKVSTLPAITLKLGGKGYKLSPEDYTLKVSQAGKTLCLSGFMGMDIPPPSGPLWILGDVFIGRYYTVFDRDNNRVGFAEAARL

## CCOC(=O)[C@H]1O[C@@H]1C(=O)N[C@@H](CC(C)C)C(=O)NCCC(C)C (relative stereo) [E64D]
HOM2 cells; E64D, concentration not stated in Example 2
  SDS-stable dimer formation: decrease

## CC(C)[C@H](NC(=O)[C@H](Cc1ccccc1)C[C@H](O)[C@H](Cc1ccccc1)NC(=O)OC(C)(C)C)C(=O)N[C@@H](Cc1ccccc1)C(=O)N1CCOCC1 [CGP 53437]
Cathepsin D [1]
  inhibits cathepsin D: nanomolar range
HOM2 cells; 5 µM or 50 µM CGP 53437, chase 5 hours
  SDS-stable complexes: nor did it produce a decrease
Cathepsin D [2]; 5 µM
  inhibits cathepsin D activity in human monocytes: 75%
Cathepsin D [2]; 50 µM
  inhibits cathepsin D activity in human monocytes: 90%

## CC(C)C[C@H](NC(=O)N1CCOCC1)C(=O)N[C@H](/C=C/S(=O)(=O)c1ccccc1)CCc1ccccc1 [LHVS, morpholinurea-leucine-homophenylalanine-vinylsulfone phenyl]
Cathepsin H
  inhibition of purified human cathepsin H: not inhibited
Cathepsin B
  labeling of cathepsin B: decreased, although some activity remained
Cathepsin S
  labeling of cathepsin S: effectively inhibited
[3]
  attenuation of 3H-thymidine uptake response to tetanus toxoid: approximately 60%
HOM2 cells; 1 nM and 5 nM LHVS, chase 5 hours
  formation of SDS-stable complexes (peptide loading): marked decrease

From EP1400530A1, “Suppression of immune response via inhibition of cathepsin S” (MASSACHUSETTS INSTITUTE OF TECHNOLOGY, priority 1996, dated 1997)
